# Test results reported in US20070265194A1, “Agents for the treatment of viral infections” (priority 2000, published 2007).
# Peptide text beside a SMILES is read from it. * marks the point of attachment. Cbz = O=C(OCc1ccccc1)*
# Key:
# HIV-1 protease = HIV-1 protease (Human immunodeficiency virus type 1 group M subtype B, UniProt P04585); test: In vitro Gag processing of recombinant Pr55 by recombinant HIV-1 protease, Western blot; type: biochemical; conditions: for inhibition of protease activity: 10-fold higher concentration than in the cell culture, 30 min reaction, FIG. 3 reactions 4-9; for inhibitory action on Gag processing by HIV-1 protease: inhibitor concentration of up to 100 microM, enzyme-to-substrate ratio 1:25
# Text: Therefore, a possible influence of proteasome inhibitors on the enzymic activity of the HIV-1 protease is investigated within the framework of the invention by studying the in vitro processing of Gag polyprotein (for this, see exemplary embodiment 4). For this purpose, according to the invention, recombinant Pr55 is expressed in insect cells and purified from released virus-like particles. Enzymatically active HIV-1 protease is expressed in E. coli and chromatographically purified. The specific activity of the protease is determined by means of titration of the active sites. Pr55 and protease are set to an enzyme-to-substrate ratio of 1:25 and incubated for a defined time under conditions under which only approx. 50% of the substrate Pr55 is proteolytically processed. These reaction conditions allow sensitive detection of small effects on the enzymic activity of the protease.
# Recombinant HIV-1 Gag polyprotein Pr55 was prepared in insect cells and recombinant HIV-1 protease was prepared in E. coli. The experimental details of expression, purification and determination of the enzymic activity as well as carrying out the in vitro cleavage reactions and Western blots are illustrated in more detail in Example 6f. The enzyme-to-substrate ratios (protease-Pr55 ratio) were chosen in such a way that substrate conversion was relatively slow. After 30 min of reaction, approx. 50% of Pr55 had been cleaved. Under these conditions it is possible to determine even weakly inhibitory effects on the enzymic activity of the protease.
# Myristylated Pr55 of HIV-1 was produced from virus-like particles which were released from insect cells infected with recombinant baculovirus Gag12myr. The virus-like particles were purified by centrifugation through a 20% sucrose layer. Recombinant HIV-1 protease expressed in E. coli was purified by means of gel filtration chromatography on Superose 12. The enzyme concentration was determined by means of active-site titration. For cleavage reactions, usually 1 μM Pr55 was incubated with 40 nM (nanomol) PR in reaction buffer (50 mM MES pH 6.5, 300 mM NaCl, 2 mM DTT, 1 mM EDTA, 0.1% Triton-X 100) at 37° C. for 30 min. In order to ensure maximum saturation of PR with inhibitors, PR was preincubated with the particular inhibitor for 5 min, prior to the start of the cleavage reactions. The cleavage reactions were stopped by adding SDS sample buffer and boiling the sample for 10 min. The cleavage products were fractionated in 10% SDS-PAGE and then detected by means of Western blot. For this purpose, anti-CA-specific antibodies were used which were detected by means of anti-rabbit IgG-peroxidase conjugate and chemiluminescence reaction.
# Recombinant Pr55 was isolated from virus-like particles which had been produced by insect cells infected with recombinant bacculovirus. Recombinant HIV-1 protease was expressed in E. coli, purified, and the specific activity was determined by active-site titration. The quantities of Pr55 and protease were mixed with an enzyme-to-substrate ratio of 1:25 and incubated at 37° C. for 30 min. The reaction was stopped by adding SDS sample buffer. The cleavage reactions were then studied by Western blot analysis with CA-specific antiserum. Pr55, CA and intermediate processing product MA-Ca were made visible, after antibody binding, by means of a chemiluminescence reaction. […]
# mouse thymus cell lines = conditions: cited from earlier work
# DHBV = test: Primary and secondary DHBV infection in primary duck hepatocytes, core immunofluorescence; type: cell-based, duck hepatitis B virus
# 20S proteasome = 20S proteasome (Homo sapiens, UniProt P28074); conditions: in vitro; cited from earlier work
# HIV-1NL4-3 [1] = type: cell-based
# HIV-1NL4-3 [2] = test: Infectivity of released virions, end point titration (TCID50) on C8166 cells; type: cell-based; conditions: for Infectivity Titer/ng p24^CA / Virus titer/ml TCID50 / Infectivity % of “no zLLL”: 40 μM zLLL; for Infectivity % of “no zLLL”: control = 100; for reduction of infectious virions in the cell culture medium: 40 microM zLLL
# Procedure: Cultures of human CD4^+ T cells, A3.01 were infected with HIV-1NL4-3 and cultured in RPMI for approx. 7 days. Approx. 80% of the cell culture medium was replaced every other day. The amount of released virus particles was determined by testing samples of the cell culture supernatants for activity of virus-associated RT. Furthermore, the spread of the infection was monitored by indirect immunofluorescence with anti-CA antibodies. The time of maximum spread of the infection in the culture was determined on the basis of RT accumulation and of syncytia formation. At the time of maximum virus production (approx. 7 days after infection), fresh noninfected A3.01 cells were mixed with the infected culture in a 1:1 ratio and incubated for another 24 h. This makes it possible to quasi-synchronize the infection and to maximize the number of infected cells with maximum HIV expression at a given time. The cells were divided into parallel cultures, washed with PBS and treated with 40 microM zLLL in medium for 4.5 hours. Washing of the cells and culturing in fresh medium was necessary in order to monitor the newly produced viruses during the harvest period of 4.5 hours (+zLLL “0 hr”). It was assumed that there is a certain lag phase of approx. 1 hour, corresponding to HIV-1 assembly, between the start of the treatment with proteasome inhibitors and the release of defective virions. In order to monitor the virus production of cells with inactivated proteasomes at the start of the harvest period, parallel cultures were pretreated with 40 microm zLLL prior to the washing step for one (+zLLL “−1 hr”) or 6 hours (+zLLL “−6 hr”). A parallel culture was incubated without inhibitor (no zLLL). The virus-containing cell culture supernatants were collected, filtered, and the amount of Gag proteins was quantified by means of a standardized capture ELISA using anti-CA antibodies with different epitopes. […] The infectivity of the culture supernatants was determined by means of end point titration (detailed in example 6d) and is indicated as TCID50 in Table 1. The specific infectivity was determined by dividing TCID50 by the total amount of Gag and is listed in Table 1 as percentage infectivity of the control culture (no zLLL=100%). Both the release of Gag proteins and the infectivity of the released virions are shown to be inhibited after zLLL treatment. This effect increases with time, and infectious virions in the cell culture medium are reduced by 84% after 4.5 hours and by 98% after another 6 hours of pretreatment (Table 1).
# CD4^+ T cells (A3.01) were infected with HIV-1NL4-3, at the time of maximum virus production (approx. 7 days post infection), parallel cultures were treated either without or with 40 μM zLLL for 1 (+zLLL “−1 hr”) or 6 hours (+zLLL “−6 hr”). This was followed by washing the cells and another 4.5 hours of incubating with or without 40 μM zLLL. In a parallel culture, cells were treated with 40 μM zLLL immediately after washing (+zLLL “0 hr”). The virus-containing supernatants were collected, and the amount of CA antigen was quantified by means of ELISA. The specific infectivity was determined as the infectious virus titer per nanog of CA and depicted relative to the untreated control culture (100%).
# Acute HIV-1NL4-3-infected A3.01 cells were treated with 40 microM zLLL for various times, as indicated in exemplary embodiment 1. Cell-free cell culture supernatant was harvested and filtered (pore size=0.45 microm). The relative quantity of released virions was quantified by means of a p24^CA-antigen capture ELISA. For the purpose of virus titration, in each case 8 parallel cultures of C8166 cells were infected with the particular viral preparations, in a serial 10-fold dilution. The infectivity titer was determined as 50% cell culture infectious dose (TCID50), namely by determining syncytia formation for each culture and dilution step on day 10 post infection. […]
# HIV-1NL4-3 [3] = test: HIV-1 replication in A3.01 cell culture, RT activity in supernatant; type: cell-based; conditions: for productive infection in the culture (RT accumulation): 5 microM, approx. 2 weeks
# HIV-1NL4-3 [4] = test: Virus release from HIV-1-infected A3.01 T cells, p24 CA capture ELISA; type: cell-based
# Procedure: Cultures of human CD4^+ T cells, A3.01 were infected with HIV-1NL4-3 and cultured in RPMI for approx. 7 days. Approx. 80% of the cell culture medium was replaced every other day. The amount of released virus particles was determined by testing samples of the cell culture supernatants for activity of virus-associated RT. Furthermore, the spread of the infection was monitored by indirect immunofluorescence with anti-CA antibodies. The time of maximum spread of the infection in the culture was determined on the basis of RT accumulation and of syncytia formation. At the time of maximum virus production (approx. 7 days after infection), fresh noninfected A3.01 cells were mixed with the infected culture in a 1:1 ratio and incubated for another 24 h. This makes it possible to quasi-synchronize the infection and to maximize the number of infected cells with maximum HIV expression at a given time. The cells were divided into parallel cultures, washed with PBS and treated with 40 microM zLLL in medium for 4.5 hours. […] The virus-containing cell culture supernatants were collected, filtered, and the amount of Gag proteins was quantified by means of a standardized capture ELISA using anti-CA antibodies with different epitopes. […] The infectivity of the culture supernatants was determined by means of end point titration (detailed in example 6d) and is indicated as TCID50 in Table 1. The specific infectivity was determined by dividing TCID50 by the total amount of Gag and is listed in Table 1 as percentage infectivity of the control culture (no zLLL=100%). […]
# CD4^+ T cells (A3.01) were infected with HIV-1NL4-3, at the time of maximum virus production (approx. 7 days post infection), parallel cultures were treated either without or with 40 μM zLLL for 1 (+zLLL “−1 hr”) or 6 hours (+zLLL “−6 hr”). […] The virus-containing supernatants were collected, and the amount of CA antigen was quantified by means of ELISA. The specific infectivity was determined as the infectious virus titer per nanog of CA and depicted relative to the untreated control culture (100%). […]
smiles,measurement,setting,value
"CC(=O)N[C@@H](CSC(=O)[C@]1([C@@H](O)C(C)C)NC(=O)[C@H](C)[C@@H]1O)C(=O)O [LC, lactacystin]",inhibition of protease activity,HIV-1 protease,not possible to detect any inhibition
same,inhibitory action on Gag processing by HIV-1 protease,HIV-1 protease,no inhibitory action whatsoever
same,concentration tolerated in cell culture,mouse thymus cell lines,up to 6 μM
C=C(C)C[C@H](NC(=O)[C@H](CO)NC(=O)CCCCC(C)C)C(=O)[C@@]1(CO)CO1 [eponemycin],number of core-positive cells compared to untreated cultures,"DHBV; 1 μM, day 3 to day 6 after infection",much lower number of core-positive cells
same,tolerability in HepG2,HepG2,still tolerated well
CC[C@H](C)[C@H](NC(=O)[C@H]([C@@H](C)CC)N(C)C(C)=O)C(=O)N[C@H](C(=O)N[C@@H](CC(C)C)C(=O)[C@@]1(C)CO1)[C@@H](C)O [epoxomicin],concentration from which toxic symptoms appeared,"HepG2; human, 48 h",≥ 100 nM
CC(C)c1nc(CN(C)C(=O)N[C@H](C(=O)N[C@@H](Cc2ccccc2)C[C@H](O)[C@H](Cc2ccccc2)NC(=O)OCc2cncs2)C(C)C)cs1 [ritonavir],inhibition of chymotrypsin activity of the 20S proteasome,20S proteasome,can inhibit
CC(C)(C)NC(=O)[C@@H]1C[C@@H]2CCCC[C@@H]2CN1C[C@@H](O)[C@H](Cc1ccccc1)NC(=O)[C@H](CC(N)=O)NC(=O)c1ccc2ccccc2n1 [saquinavir],in vitro processing of Pr55,"HIV-1 protease; control, FIG. 3 reaction 10",complete blockage
Cc1ccc(C(=O)Nc2ccc(S(=O)(=O)O)c3cc(S(=O)(=O)O)cc(S(=O)(=O)O)c23)cc1NC(=O)c1cccc(NC(=O)Nc2cccc(C(=O)Nc3cc(C(=O)Nc4ccc(S(=O)(=O)O)c5cc(S(=O)(=O)O)cc(S(=O)(=O)O)c45)ccc3C)c2)c1 [suramin],number of the core-expressing cells,"DHBV; 100 microg/ml, from three days after infection for three days",very greatly reduced
same,establishment of the primary infection,"DHBV; pretreatment 100 microg/ml, 2 h pre-infection",completely blocks
"CC(C)C[C@@H](C=O)NC(=O)[C@H](CC(C)C)NC(=O)[C@H](CC(C)C)NC(=O)OCc1ccccc1 [zLLL, N-carbobenzoxyl-L-leucinyl-L-leucinyl-L-leucinal] (Cbz-Leu-Leu-Leu-aldehyde)",kinetics of intracellular Gag processing and of the release of virus-associated and free Gag,HIV-1NL4-3 [1],distinct delay
same,Infectivity Titer/ng p24^CA,"HIV-1NL4-3 [2]; “0 hr”, 4.5 hours harvest",1.0 × 10^4 Titer/ng p24^CA
same,Virus titer/ml TCID50,"HIV-1NL4-3 [2]; “0 hr”, 4.5 hours harvest",1.2 × 10^6 TCID50/ml
same,Infectivity % of “no zLLL”,"HIV-1NL4-3 [2]; “0 hr”, 4.5 hours harvest",14%
same,Infectivity Titer/ng p24^CA,HIV-1NL4-3 [2]; “−1 hr” plus 4.5 hours harvest,5.0 × 10^3 Titer/ng p24^CA
same,Virus titer/ml TCID50,HIV-1NL4-3 [2]; “−1 hr” plus 4.5 hours harvest,4.4 × 10^5 TCID50/ml
same,Infectivity % of “no zLLL”,HIV-1NL4-3 [2]; “−1 hr” plus 4.5 hours harvest,7%
same,Infectivity Titer/ng p24^CA,HIV-1NL4-3 [2]; “−6 hr” plus 4.5 hours harvest,1.5 × 10^3 Titer/ng p24^CA
same,Virus titer/ml TCID50,HIV-1NL4-3 [2]; “−6 hr” plus 4.5 hours harvest,3.8 × 10^4 TCID50/ml
same,Infectivity % of “no zLLL”,HIV-1NL4-3 [2]; “−6 hr” plus 4.5 hours harvest,2%
same,reduction of infectious virions in the cell culture medium,HIV-1NL4-3 [2]; after 4.5 hours,84%
same,reduction of infectious virions in the cell culture medium,HIV-1NL4-3 [2]; after another 6 hours of pretreatment,98%
same,effect on HIV-1 replication,HIV-1NL4-3 [3]; 1 microM,completely inhibits replication
same,productive infection in the culture (RT accumulation),HIV-1NL4-3 [3]; FIG. 4 panel 1,no productive infection at all
same,productive infection in the culture (RT accumulation),HIV-1NL4-3 [3]; FIG. 4 panel 2,only a very reduced productive infection
same,effect on HIV-1 replication,HIV-1NL4-3 [3]; 100 nanoM,relatively weak inhibitory effect
same,inhibition of protease activity,HIV-1 protease,not possible to detect any inhibition
same,inhibitory action on Gag processing by HIV-1 protease,HIV-1 protease,no inhibitory action whatsoever
same,Virus release ng p24^CA/ml,"HIV-1NL4-3 [4]; 40 μM zLLL added immediately after washing (“0 hr”), 4.5 hours harvest, A3.01",122 ng p24^CA/ml
same,Virus release ng p24^CA/ml,"HIV-1NL4-3 [4]; 40 μM zLLL, 1 hour pretreatment (“−1 hr”) plus 4.5 hours harvest",88 ng p24^CA/ml
same,Virus release ng p24^CA/ml,"HIV-1NL4-3 [4]; 40 μM zLLL, 6 hours pretreatment (“−6 hr”) plus 4.5 hours harvest",26 ng p24^CA/ml
